# Assay results reported in patent US4201843A, “Process for manufacturing tylosin derivatives” (Sanraku Ocean Co., Ltd., priority 1975, dated 1980).
# Columns and labels:
# [1] = system: Bacillus cereus ATCC 9634; test: minimum growth-inhibitory concentration; type: cell-based; conditions: ATCC9634
# Description: (§1) The antimicrobial spectra of new tylosin derivatives of this invention are shown in Table 2 by listing the minimum growth inhibitory concentrations (MIC, mcg/ml). […] The toxicity of these compounds was tested in animals by intravenous administration, and the LD50 values in mice are more than 400 mg/kg with all compounds. In therapeutical experiments with mice manually infected by Staphilococcus aureus SMITH, the ED50 values were less than 50 mg/kg (p.o.) with all said tylosin derivatives.
# [2] = system: Bacillus megaterium NRRL B-938; test: minimum growth-inhibitory concentration; type: cell-based; conditions: Priestia megaterium, NRRLB938
# Description: as §1
# [3] = system: Bacillus subtilis ATCC 6633; test: minimum growth-inhibitory concentration; type: cell-based; conditions: ATCC6633
# Description: as §1
# [4] = system: Candida albicans IAM 4905; test: minimum growth-inhibitory concentration; type: cell-based; conditions: IAM4905
# Description: as §1
# [5] = system: Candida tropicalis IAM 4924; test: minimum growth-inhibitory concentration; type: cell-based; conditions: IAM4924
# Description: as §1
# [6] = system: Corynebacterium bovis 1810; test: minimum growth-inhibitory concentration; type: cell-based
# Description: as §1
# [7] = system: Escherichia coli (National Institute of Health); test: minimum growth-inhibitory concentration; type: cell-based
# Description: as §1
# Micrococcus flavus I = test: minimum growth-inhibitory concentration; type: cell-based
# Description: as §1
# [8] = system: Mycobacterium smegmatis ATCC 607; test: minimum growth-inhibitory concentration; type: cell-based; conditions: Mycolicibacterium smegmatis, ATCC607
# Description: as §1
# [9] = system: Proteus morganii (The Institute for Infectious Diseases); test: minimum growth-inhibitory concentration; type: cell-based; conditions: Morganella morganii
# Description: as §1
# [10] = system: Pseudomonas fluorescens NIHJB 254; test: minimum growth-inhibitory concentration; type: cell-based; conditions: NIHJB254
# Description: as §1
# Sarcina lutea ATCC 9341 = test: minimum growth-inhibitory concentration; type: cell-based; conditions: Micrococcus luteus, ATCC9341
# Description: as §1
# [11] = system: Staphylococcus aureus FAD209P; test: minimum growth-inhibitory concentration; type: cell-based; conditions: read-out: minimum growth-inhibitory concentration (MIC)
# Description: as §1
# [12] = system: Staphylococcus aureus SMITH; test: minimum growth-inhibitory concentration; type: cell-based
# Description: as §1
# [13] = system: Staphylococcus aureus MS 8710; test: minimum growth-inhibitory concentration; type: cell-based; conditions: MS8710; Staphylococcus aureus MS 8710, drug resistant strain
# Description: as §1
# (§2) The strains marked * in Table 2 are the drug resistant strains isolated from patients, namely, Staphilococcus aureus MS-9610 which is resistant to penicillin, tetracycline, erythromycin, leucomycin, spiramycin, josamycin and tylosin, Staphilococcus aureus MS-8710 which is resistant to penicillin, tetracycline, erythromycin, leucomycin and tylosin, and Streptococcus pyogenes MH 771 which is resistant to erythromycin, oleandomycin, leucomycin and tylosin.
# [14] = system: Staphylococcus aureus MS 9610; test: minimum growth-inhibitory concentration; type: cell-based; conditions: MS9610; Staphylococcus aureus MS 9610, drug resistant strain
# Description: as §1, §2
# [15] = system: Streptococcus pyogenes MH 771; test: minimum growth-inhibitory concentration; type: cell-based; conditions: MH771, read-out: minimum growth-inhibitory concentration (MIC)
# Description: as §1
# (broth-dilution method)
# as §2
# drug resistant strains = test: antimicrobial activity against drug resistant strains; type: cell-based; conditions: strains marked * in Table 2
# Text: One of the particular advantages of the said tylosin derivatives over known macrolide antibiotics is their distinct antimicrobial activity against drug resistant bacteria.
# as §2
# solubility in solvents = type: physicochemical; conditions: for solubility in lower alcohols, ketones, ethers, esters, benzene and toluene: e.g. ethanol, acetone, ethyl ether, ethyl acetate
# Text: (§3) The physicochemical analysis and deterimations included elementary analysis, melting point, specific rotatory power, ultraviolet spectrum, infrared spectrum, magnetic nuclear resonance (NMR), C^13 -NMR, mass spectrum (chemical ionization), the release of organic acids under alkaline conditions (gas chromatographical detection), solubility in solvents, color development reaction, basicity of the compounds, appearance and crystalline form. The molecular weight was obtained as QM^+ (Quasi Molecular ion) by chemically-ionized mass spectra analysis.
# (§4) (2) the crystals obtained from the solvents in (13) were used for the tests in (1)-(12), and […]
# [16] = basicity of the compounds (alkalinity); type: physicochemical
# Text: as §3, §4
# [17] = electrometric determination in dimethyl formamide-H2O=2:1 by volume; Japanese Patent (Kokoku) Showa No. 36-22649; cited from earlier work
Compound,MIC [1],MIC [2],MIC [3],MIC [4],MIC [5],MIC [6],MIC [7],MIC (Micrococcus flavus I),MIC [8],MIC [9],MIC [10],MIC (Sarcina lutea ATCC 9341),MIC [11],MIC [12],MIC [13],MIC [14],MIC [15],antimicrobial activity against a wide range of drug resistant strains (drug resistant strains),solubility in acidic water (solubility in solvents),solubility in alkaline water (solubility in solvents),other results
"CCC1OC(=O)CC(OC(C)=O)C(C)C(OC2OC(C)C(OC3CC(C)(O)C(OC(=O)CC(C)C)C(C)O3)C(N(C)C)C2O)C(CC=O)CC(C)C(=O)C=CC(C)=CC1COC1OC(C)C(O)C(OC)C1OC (stereo not shown) [3-acetyl-4""-isovaleryltylosin]",1.95 µg/mL,0.49 µg/mL,0.98 µg/mL,> 250 µg/mL,> 250 µg/mL,0.5 µg/mL,125 µg/mL,0.25 µg/mL,3.91 µg/mL,> 250 µg/mL,> 250 µg/mL,0.25 µg/mL,0.49 µg/mL,0.49 µg/mL,15.6 µg/mL,62.5 µg/mL,3.91 µg/mL,particularly strong antimicrobial activity,soluble,hardly soluble,"solubility in lower alcohols, ketones, ethers, esters, benzene and toluene (solubility in solvents): soluble; solubility in n-hexane and petroleum ether (solubility in solvents): hardly soluble; solubility in neutral water (solubility in solvents): slightly soluble; alkalinity [16]: alkaline compounds"
"CCC(=O)OC1CC(=O)OC(CC)C(COC2OC(C)C(O)C(OC)C2OC)C=C(C)C=CC(=O)C(C)CC(CC=O)C(OC2OC(C)C(OC3CC(C)(O)C(OC(=O)CC(C)C)C(C)O3)C(N(C)C)C2O)C1C (stereo not shown) [3-propionyl-4""-isovaleryltylosin]",0.98 µg/mL,0.49 µg/mL,0.49 µg/mL,> 250 µg/mL,> 250 µg/mL,1 µg/mL,250 µg/mL,0.49 µg/mL,3.91 µg/mL,> 250 µg/mL,> 250 µg/mL,0.25 µg/mL,0.49 µg/mL,1.95 µg/mL,15.6 µg/mL,62.5 µg/mL,3.91 µg/mL,particularly strong antimicrobial activity,soluble,hardly soluble,"solubility in lower alcohols, ketones, ethers, esters, benzene and toluene (solubility in solvents): soluble; solubility in n-hexane and petroleum ether (solubility in solvents): hardly soluble; solubility in neutral water (solubility in solvents): slightly soluble; alkalinity [16]: alkaline compounds"
"CCCC(=O)OC1C(C)OC(OC2C(C)OC(OC3C(CC=O)CC(C)C(=O)C=CC(C)=CC(COC4OC(C)C(O)C(OC)C4OC)C(CC)OC(=O)CC(OC(C)=O)C3C)C(O)C2N(C)C)CC1(C)O (stereo not shown) [3-acetyl-4""-n-butyryltylosin]",0.98 µg/mL,0.49 µg/mL,0.49 µg/mL,> 250 µg/mL,> 250 µg/mL,0.5 µg/mL,250 µg/mL,0.25 µg/mL,1.95 µg/mL,> 250 µg/mL,> 250 µg/mL,< 0.12 µg/mL,0.25 µg/mL,0.25 µg/mL,15.6 µg/mL,250 µg/mL,15.6 µg/mL,particularly strong antimicrobial activity,soluble,hardly soluble,"solubility in lower alcohols, ketones, ethers, esters, benzene and toluene (solubility in solvents): soluble; solubility in n-hexane and petroleum ether (solubility in solvents): hardly soluble; solubility in neutral water (solubility in solvents): slightly soluble; alkalinity [16]: alkaline compounds"
"CCCC(=O)OC1C(C)OC(OC2C(C)OC(OC3C(CC=O)CC(C)C(=O)/C=C/C(C)=C/C(COC4OC(C)C(O)C(OC)C4OC)C(CC)OC(=O)CC(O)C3C)C(O)C2N(C)C)CC1(C)O (stereo not shown) [4""-n-butyryltylosin]",0.98 µg/mL,0.49 µg/mL,0.49 µg/mL,> 250 µg/mL,> 250 µg/mL,0.98 µg/mL,125 µg/mL,0.49 µg/mL,3.91 µg/mL,> 250 µg/mL,> 250 µg/mL,0.25 µg/mL,0.25 µg/mL,0.25 µg/mL,62.5 µg/mL,> 250 µg/mL,15.6 µg/mL,particularly strong antimicrobial activity,soluble,hardly soluble,"solubility in lower alcohols, ketones, ethers, esters, benzene and toluene (solubility in solvents): soluble; solubility in n-hexane and petroleum ether (solubility in solvents): hardly soluble; solubility in neutral water (solubility in solvents): slightly soluble; alkalinity [16]: alkaline compounds"
tylosin acetyl ester,–,–,–,–,–,–,–,–,–,–,–,–,–,–,–,–,–,–,–,–,pk value [17]: about 5.1
"CCCC(=O)OC1C(C)OC(OC2C(C)OC(OC3C(CC=O)CC(C)C(=O)C=CC(C)=CC(COC4OC(C)C(O)C(OC)C4OC)C(CC)OC(=O)CC(OC(=O)CC)C3C)C(O)C2N(C)C)CC1(C)O (stereo not shown) [3-propionyl-4""-n-butyryltylosin]",1.95 µg/mL,0.49 µg/mL,0.49 µg/mL,> 250 µg/mL,> 250 µg/mL,0.5 µg/mL,250 µg/mL,0.25 µg/mL,3.91 µg/mL,> 250 µg/mL,> 250 µg/mL,< 0.12 µg/mL,0.98 µg/mL,0.25 µg/mL,31.3 µg/mL,250 µg/mL,15.6 µg/mL,particularly strong antimicrobial activity,soluble,hardly soluble,"solubility in lower alcohols, ketones, ethers, esters, benzene and toluene (solubility in solvents): soluble; solubility in n-hexane and petroleum ether (solubility in solvents): hardly soluble; solubility in neutral water (solubility in solvents): slightly soluble; alkalinity [16]: alkaline compounds"
